Data taken from publication PMC7948405, “Small-molecule control of neurotransmitter sulfonation” (The Journal of Biological Chemistry, 2020).

Assays:
SULT1A3 [1] = biological target: T1, SULT1A3 (Homo sapiens, UniProt P0DMM9); assay: Equilibrium binding of CMP13 to SULT1A3 complexes (intrinsic fluorescence)
T1 construct: E. coli–optimized SULT coding regions were inserted into a pGEX-6P expression vector; N-His/GST/MBP triple tag (PreScission-cleavable) (N, cleaved yes); made in house; host or cells: E. coli BL21(DE3)
T1 sequence (P0DMM9 whole entry): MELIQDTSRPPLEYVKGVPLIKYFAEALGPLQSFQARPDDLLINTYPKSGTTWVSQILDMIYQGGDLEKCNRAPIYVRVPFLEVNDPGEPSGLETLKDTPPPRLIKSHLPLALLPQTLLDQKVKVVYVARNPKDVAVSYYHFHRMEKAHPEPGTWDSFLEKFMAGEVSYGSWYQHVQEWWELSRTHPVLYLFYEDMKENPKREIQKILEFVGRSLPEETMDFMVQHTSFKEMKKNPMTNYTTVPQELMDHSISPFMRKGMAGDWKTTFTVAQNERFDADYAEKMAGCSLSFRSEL
Text: (§1) Figure 4 The inhibition mechanism. A, equilibrium binding. Binding was monitored via ligand-induced changes in SULT1A3 intrinsic fluorescence (λex = 290 nm, λem = 335 nm). […] Each dot represents the average of three independent titrations. Lines passing through the data represent the outcomes predicted by least-squares fitting of the averaged data to a single-binding-site model. B, representative PAP-binding reaction. PAP binding was monitored using a stopped-flow fluorimeter (λex = 290 nm, λem ≥ 330 nm (cutoff filter)). Reactions were initiated by rapidly mixing (1:1 v/v) a solution containing SULT1A3 (30 nM, dimer), CMP13 (1.0 μM, 100 × Kd), Tam (160 μM, 200 × Kd), KPO4 (50 mM), pH 7.5, 25(±2) °C, with a solution that was identical except that it lacked SULT1A3 and contained PAP (2.0 μM). The average of five independent progress curves shown and the kobs was obtained by fitting the data to a single exponential. C, pre–steady-state binding. PAP binding was monitored as described for panel B. Reactions were initiated by mixing (1:1 v/v) a solution containing SULT1A3 (30 nM, dimer), CMP13 [0 μM (black dots) or 1.0 μM, 100 × Kd (red and blue dots)], Tam [0 μM (black and blue dots) or 160 μM, 200 × Kd (red dots)], KPO4 (50 mM), pH 7.5, 25(±2) °C, with a solution that was identical except that it lacked SULT1A3 and contained PAP at twice the indicated concentrations. Each kobs value was determined in triplicate, and the averaged values are shown. kon and koff are given, respectively, by the slopes and intercepts obtained from linear least-squares fitting of the kobs vs [PAP] plot. PAP, 3′-phosphoadenosine-5′-phosphate; SULT1A3, sulfotransferase 1A3; Tam, 4-hydroxy-tamoxifen.
CMP13 binding to SULT1A3 was monitored via binding-induced changes in SULT1A3 intrinsic fluorescence (λex= 290 nm, λem= 335 nm ([17])). […] PAP binding was determined using the same protocol except that [PAP] was varied and CMP13 was 1.0 μM (100 × Ki). Titrations were performed in triplicate. Data were averaged and least-squares fit using a model that assumes a single binding site per monomer.

SULT1A3 [2] = biological target: T1, SULT1A3; assay: Pre-steady-state (stopped-flow fluorescence) binding of PAP to SULT1A3 complexes; details: E·CMP13 vs E
Text: as §1
To resolve this uncertainty, PAP on- and off-rate constants for a series of open and closed complexes were determined using stopped-flow fluorescence. A representative binding reaction can be seen in Fig. 4B. The binding reactions were pseudo-first order in [PAP], and kobs values were obtained by fitting reaction progress curves to a single-exponential equation. On- and off-rate constants (see Table 3) are given by the plot slopes and intercepts.
Pre–steady-state binding of PAP to SULT1A3 was monitored via ligand-induced changes in SULT1A3 fluorescence using an Applied Photophysics SX20 stopped-flow spectrofluorometer. Fluorescence was measured at λex = 290 nm and λem ≥ 330 nm (using a cutoff filter). […] All reactions were pseudo first order with respect to [PAP]. kobs values, determined in triplicate at each PAP concentration, were obtained by least-squares fitting the average of five progress curves to a single-exponential equation. kon and koff, obtained by linear least-squares fitting, are given by the slopes and intercepts of four-point kobs-vs-[PAP] plots.

- Kd (SULT1A3 [1]; complex E (unliganded, cap-open)): 130 nM
- Kd (SULT1A3 [1]; complex E·PAP (cap-closed), PAP 350 μM): 11 nM
- Kd (SULT1A3 [1]; complex E·PAP·Tam (cap held open), PAP 350 μM, Tam 160 μM): 133 nM
- fold tighter binding to cap-closed E·PAP than to open form E (SULT1A3 [1]; ratio of Kd values): 12 fold
- fold decrease of the PAP off-rate constant caused by inhibitor (SULT1A3 [2]): ~14 fold
Compound: CC(C)Cc1ccc2cc(/C=C/C(N)=O)cnc2n1 [CMP13]
